{
  "source": "patent US20130005747A1",
  "about": "“METHOD FOR SELECTING A CANCER THERAPY” (Cyclacel Limited, priority 2010, published 2013)",
  "experiment_in_all_cases": "Fractional growth, 72 h seliciclib",
  "assay_type_in_all_cases": "cell-based, human",
  "key": {"[1]": {"test_system": "769-P", "conditions": "769-P (Kidney), 15 μM seliciclib", "from_the_text": "(§1) A total of 270 human cancer cell lines from diverse cancer histopathologic types were investigated."}, "[2]": {"test_system": "A-427", "conditions": "A-427 (Lung: NSCLC), 15 μM seliciclib", "from_the_text": "as §1"}, "[3]": {"test_system": "AsPC-1", "conditions": "AsPC-1 (Pancreas), 15 μM seliciclib", "from_the_text": "as §1"}, "[4]": {"test_system": "BT-20", "conditions": "BT-20 (Breast), 15 μM seliciclib", "from_the_text": "as §1"}, "[5]": {"test_system": "BT-549", "conditions": "BT-549 (Breast), 15 μM seliciclib", "from_the_text": "as §1"}, "[6]": {"test_system": "CAL-29", "conditions": "CAL-29 (Bladder), 15 μM seliciclib", "from_the_text": "as §1"}, "[7]": {"test_system": "COLO 320DM", "conditions": "COLO 320DM (Intestine), 15 μM seliciclib", "from_the_text": "as §1"}, "[8]": {"test_system": "CS1R", "conditions": "CS1R (Bone), 15 μM seliciclib", "from_the_text": "as §1"}, "[9]": {"test_system": "Calu-3", "conditions": "Calu-3 (Lung: NSCLC), 15 μM seliciclib", "from_the_text": "as §1"}, "[10]": {"test_system": "Detroit 562", "conditions": "Detroit 562 (Head & Neck), 15 μM seliciclib", "from_the_text": "as §1"}, "[11]": {"test_system": "EBC-1", "conditions": "EBC-1 (Lung: NSCLC), 15 μM seliciclib", "from_the_text": "as §1"}, "[12]": {"test_system": "EPLC-272H", "conditions": "EPLC-272H (Lung: NSCLC), 15 μM seliciclib", "from_the_text": "as §1"}, "[13]": {"test_system": "GCT", "conditions": "GCT (Miscellaneous), 15 μM seliciclib", "from_the_text": "as §1"}, "[14]": {"test_system": "HARA", "conditions": "HARA (Lung: NSCLC), 15 μM seliciclib", "from_the_text": "as §1"}, "[15]": {"test_system": "HEC-1", "conditions": "HEC-1 (Uterus), 15 μM seliciclib", "from_the_text": "as §1"}, "[16]": {"test_system": "HO-1-u-1", "conditions": "HO-1-u-1 (Head & Neck), 15 μM seliciclib", "from_the_text": "as §1"}, "[17]": {"test_system": "JHH-2", "conditions": "JHH-2 (Liver), 15 μM seliciclib", "from_the_text": "as §1"}, "[18]": {"test_system": "KP-3L", "conditions": "KP-3L (Pancreas), 15 μM seliciclib", "from_the_text": "as §1"}, "[19]": {"test_system": "KYSE-140", "conditions": "KYSE-140 (Esophagus), 15 μM seliciclib", "from_the_text": "as §1"}, "[20]": {"test_system": "LCLC-103H", "conditions": "LCLC-103H (Lung: NSCLC), 15 μM seliciclib", "from_the_text": "as §1"}, "[21]": {"test_system": "NCI-H1781", "conditions": "NCI-H1781 (Lung: NSCLC), 15 μM seliciclib", "from_the_text": "as §1"}, "[22]": {"test_system": "NCI-H1944", "conditions": "NCI-H1944 (Lung: NSCLC), 15 μM seliciclib", "from_the_text": "as §1"}, "[23]": {"test_system": "NCI-H2023", "conditions": "NCI-H2023 (Lung: NSCLC), 15 μM seliciclib", "from_the_text": "as §1"}, "[24]": {"test_system": "NCI-H2122", "conditions": "NCI-H2122 (Lung: NSCLC), 15 μM seliciclib", "from_the_text": "as §1"}, "[25]": {"test_system": "NCI-H2228", "conditions": "NCI-H2228 (Lung: NSCLC), 15 μM seliciclib", "from_the_text": "as §1"}, "[26]": {"test_system": "NUGC-3", "conditions": "NUGC-3 (Stomach), 15 μM seliciclib", "from_the_text": "as §1"}, "[27]": {"test_system": "PCI-15", "conditions": "PCI-15 (Head & Neck), 15 μM seliciclib", "from_the_text": "as §1"}, "[28]": {"test_system": "PCI-6B", "conditions": "PCI-6B (Head & Neck), 15 μM seliciclib", "from_the_text": "as §1"}, "[29]": {"test_system": "Panc 04.03", "conditions": "Panc 04.03 (Pancreas), 15 μM seliciclib", "from_the_text": "as §1"}, "[30]": {"test_system": "Panc 08.13", "conditions": "Panc 08.13 (Pancreas), 15 μM seliciclib", "from_the_text": "as §1"}, "[31]": {"test_system": "SBC-5", "conditions": "SBC-5 (Lung), 15 μM seliciclib", "from_the_text": "as §1"}, "[32]": {"test_system": "SK-MES", "conditions": "SK-MES (Lung: NSCLC), 15 μM seliciclib", "from_the_text": "as §1"}, "[33]": {"test_system": "SK-OV-3", "conditions": "SK-OV-3 (Ovary), 15 μM seliciclib", "from_the_text": "as §1"}, "[34]": {"test_system": "Sarc9371", "conditions": "Sarc9371 (Bone), 15 μM seliciclib", "from_the_text": "as §1"}, "[35]": {"test_system": "SiHa", "conditions": "SiHa (Cervix), 15 μM seliciclib", "from_the_text": "as §1"}, "[36]": {"test_system": "T.T", "conditions": "T.T (Esophagus), 15 μM seliciclib", "from_the_text": "as §1"}, "[37]": {"test_system": "XPA-4", "conditions": "XPA-4 (Pancreas), 15 μM seliciclib", "from_the_text": "as §1"}},
  "data": [
    {"smiles": "CC[C@H](CO)Nc1nc(NCc2ccccc2)c2ncn(C(C)C)c2n1", "note": "[seliciclib, roscovitine]", "values": [
      {"measurement": "Fractional Growth", "setting": "[1]", "value": 0.602},
      {"measurement": "Fractional Growth", "setting": "[2]", "value": 0.4252},
      {"measurement": "Fractional Growth", "setting": "[3]", "value": 0.6879},
      {"measurement": "Fractional Growth", "setting": "[4]", "value": 0.7016},
      {"measurement": "Fractional Growth", "setting": "[5]", "value": 0.758},
      {"measurement": "Fractional Growth", "setting": "[6]", "value": 0.5744},
      {"measurement": "Fractional Growth", "setting": "[7]", "value": 0.3188},
      {"measurement": "Fractional Growth", "setting": "[8]", "value": 0.2923},
      {"measurement": "Fractional Growth", "setting": "[9]", "value": 0.6463},
      {"measurement": "Fractional Growth", "setting": "[10]", "value": 0.1846},
      {"measurement": "Fractional Growth", "setting": "[11]", "value": 0.3971},
      {"measurement": "Fractional Growth", "setting": "[12]", "value": 0.6305},
      {"measurement": "Fractional Growth", "setting": "[13]", "value": 0.4799},
      {"measurement": "Fractional Growth", "setting": "[14]", "value": 0.6182},
      {"measurement": "Fractional Growth", "setting": "[15]", "value": 0.4632},
      {"measurement": "Fractional Growth", "setting": "[16]", "value": 0.4858},
      {"measurement": "Fractional Growth", "setting": "[17]", "value": 0.635},
      {"measurement": "Fractional Growth", "setting": "[18]", "value": 0.4338},
      {"measurement": "Fractional Growth", "setting": "[19]", "value": 0.6278},
      {"measurement": "Fractional Growth", "setting": "[20]", "value": 0.5051},
      {"measurement": "Fractional Growth", "setting": "[21]", "value": 0.6273},
      {"measurement": "Fractional Growth", "setting": "[22]", "value": 0.6921},
      {"measurement": "Fractional Growth", "setting": "[23]", "value": 0.4148},
      {"measurement": "Fractional Growth", "setting": "[24]", "value": 0.1093},
      {"measurement": "Fractional Growth", "setting": "[25]", "value": 0.6493},
      {"measurement": "Fractional Growth", "setting": "[26]", "value": 0.5557},
      {"measurement": "Fractional Growth", "setting": "[27]", "value": 0.2641},
      {"measurement": "Fractional Growth", "setting": "[28]", "value": 0.5328},
      {"measurement": "Fractional Growth", "setting": "[29]", "value": 0.4899},
      {"measurement": "Fractional Growth", "setting": "[30]", "value": 0.4222},
      {"measurement": "Fractional Growth", "setting": "[31]", "value": 0.7399},
      {"measurement": "Fractional Growth", "setting": "[32]", "value": 0.4439},
      {"measurement": "Fractional Growth", "setting": "[33]", "value": 0.7375},
      {"measurement": "Fractional Growth", "setting": "[34]", "value": 0.6425},
      {"measurement": "Fractional Growth", "setting": "[35]", "value": 0.4302},
      {"measurement": "Fractional Growth", "setting": "[36]", "value": 0.1271},
      {"measurement": "Fractional Growth", "setting": "[37]", "value": 0.3444}
    ]}
  ]
}
